Source: PubChem BioAssay AID1259407 (Chemical Carcinogenesis Research Information System (CCRIS), 2018)
The source made the active and inactive calls. How the calls were made is not given here.

Tested on: CCRIS mutagenicity, Ames/micronucleus/aberration tests
Experiment: CCRIS mutagenicity studies
[1] = Test System: AMES SALMONELLA TYPHIMURIUM, Strain/Indicator: TA100, Metabolic Activation: NONE, Method: PREINCUBATION
[2] = Test System: AMES SALMONELLA TYPHIMURIUM, Strain/Indicator: TA100, Metabolic Activation: RAT, LIVER, S-9, AROCLOR 1254, Method: PREINCUBATION
[3] = Test System: AMES SALMONELLA TYPHIMURIUM, Strain/Indicator: TA98, Metabolic Activation: NONE, Method: PREINCUBATION
[4] = Test System: AMES SALMONELLA TYPHIMURIUM, Strain/Indicator: TA98, Metabolic Activation: RAT, LIVER, S-9, AROCLOR 1254, Method: PREINCUBATION

Structure (SMILES): CCCN(N=O)C(N)=O
- mutagenic call (Test System: AMES SALMONELLA TYPHIMURIUM, Strain/Indicator: TA1535, Metabolic Activation: NONE, Method: STANDARD PLATE): active; positive
- mutagenic call (Test System: CHINESE HAMSTER V-79, Strain/Indicator: V-79/6-THIOGUANINE, Metabolic Activation: NONE, Method: FLASK ASSAY): active; positive
- mutagenic call (Test System: E. COLI B, Strain/Indicator: H/R30R, Metabolic Activation: NONE): active; positive
- mutagenic call (Test System: E. COLI B, Strain/Indicator: HS30R, Metabolic Activation: NONE): active; positive
- mutagenic call (Test System: E. COLI, Strain/Indicator: WP2, Metabolic Activation: NONE, Method: STANDARD PLATE): active; positive
- mutagenic call (Test System: E. COLI, Strain/Indicator: WP2 UVRA, Metabolic Activation: NONE, Method: STANDARD PLATE): active; positive

Structure (SMILES): O=C1C[C@@H]2NCCCNCCCCN(CCCN1)C(=O)[C@@H]1c3cc2ccc3O[C@H]1c1ccc(O)cc1
- mutagenic call (Test System: AMES SALMONELLA TYPHIMURIUM, Strain/Indicator: TA97A, Metabolic Activation: NONE): inactive; negative
- mutagenic call (Test System: AMES SALMONELLA TYPHIMURIUM, Strain/Indicator: TA97A, Metabolic Activation: RAT, LIVER, S-9): inactive; negative
- mutagenic call (Test System: AMES SALMONELLA TYPHIMURIUM, Strain/Indicator: TA98, Metabolic Activation: NONE): active; positive
- mutagenic call (Test System: AMES SALMONELLA TYPHIMURIUM, Strain/Indicator: TA98, Metabolic Activation: RAT, LIVER, S-9): active; positive
- mutagenic call (Test System: AMES SALMONELLA TYPHIMURIUM, Strain/Indicator: TA100, Metabolic Activation: NONE): active; positive
- mutagenic call (Test System: AMES SALMONELLA TYPHIMURIUM, Strain/Indicator: TA100, Metabolic Activation: RAT, LIVER, S-9): active; positive

Structure (SMILES): ClC(Cl)=C(Cl)/C(Cl)=C(\Cl)SCc1ccccc1
- mutagenic call [1]: inactive; negative
- mutagenic call [2]: active; positive

Structure (SMILES): Cc1c(C)c(Br)c(Br)c(Br)c1Br
- mutagenic call (Test System: AMES SALMONELLA TYPHIMURIUM, Strain/Indicator: TA98, Metabolic Activation: HAMSTER, LIVER, S-9, AROCLOR 1254 (10%), Method: PREINCUBATION): inactive; negative
- mutagenic call [3]: inactive; negative
- mutagenic call (Test System: AMES SALMONELLA TYPHIMURIUM, Strain/Indicator: TA98, Metabolic Activation: RAT, LIVER, S-9, AROCLOR 1254 (10%), Method: PREINCUBATION): inactive; negative
- mutagenic call (Test System: AMES SALMONELLA TYPHIMURIUM, Strain/Indicator: TA100, Metabolic Activation: HAMSTER, LIVER, S-9, AROCLOR 1254 (10%), Method: PREINCUBATION): inactive; negative
- mutagenic call [1]: inactive; negative
- mutagenic call (Test System: AMES SALMONELLA TYPHIMURIUM, Strain/Indicator: TA100, Metabolic Activation: RAT, LIVER, S-9, AROCLOR 1254 (10%), Method: PREINCUBATION): inactive; negative
- mutagenic call (Test System: AMES SALMONELLA TYPHIMURIUM, Strain/Indicator: TA1535, Metabolic Activation: HAMSTER, LIVER, S-9, AROCLOR 1254 (10%), Method: PREINCUBATION): inactive; negative
- mutagenic call (Test System: AMES SALMONELLA TYPHIMURIUM, Strain/Indicator: TA1535, Metabolic Activation: NONE, Method: PREINCUBATION): inactive; negative
- mutagenic call (Test System: AMES SALMONELLA TYPHIMURIUM, Strain/Indicator: TA1535, Metabolic Activation: RAT, LIVER, S-9, AROCLOR 1254 (10%), Method: PREINCUBATION): inactive; negative
- mutagenic call (Test System: AMES SALMONELLA TYPHIMURIUM, Strain/Indicator: TA1537, Metabolic Activation: HAMSTER, LIVER, S-9, AROCLOR 1254 (10%), Method: PREINCUBATION): inactive; negative
- mutagenic call (Test System: AMES SALMONELLA TYPHIMURIUM, Strain/Indicator: TA1537, Metabolic Activation: NONE, Method: PREINCUBATION): inactive; negative
- mutagenic call (Test System: AMES SALMONELLA TYPHIMURIUM, Strain/Indicator: TA1537, Metabolic Activation: RAT, LIVER, S-9, AROCLOR 1254 (10%), Method: PREINCUBATION): inactive; negative

Structure (SMILES): Fc1ccccn1
- mutagenic call (Test System: AMES SALMONELLA TYPHIMURIUM, Strain/Indicator: TA97, Metabolic Activation: NONE, Method: STANDARD PLATE): inactive; negative
- mutagenic call (Test System: AMES SALMONELLA TYPHIMURIUM, Strain/Indicator: TA97, Metabolic Activation: RAT, LIVER, S-9, AROCLOR 1254, Method: STANDARD PLATE): inactive; negative
- mutagenic call (Test System: AMES SALMONELLA TYPHIMURIUM, Strain/Indicator: TA98, Metabolic Activation: NONE, Method: STANDARD PLATE): inactive; negative
- mutagenic call (Test System: AMES SALMONELLA TYPHIMURIUM, Strain/Indicator: TA98, Metabolic Activation: RAT, LIVER, S-9, AROCLOR 1254, Method: STANDARD PLATE): active; positive
- mutagenic call (Test System: AMES SALMONELLA TYPHIMURIUM, Strain/Indicator: TA100, Metabolic Activation: NONE, Method: STANDARD PLATE): inactive; negative
- mutagenic call (Test System: AMES SALMONELLA TYPHIMURIUM, Strain/Indicator: TA100, Metabolic Activation: RAT, LIVER, S-9, AROCLOR 1254, Method: STANDARD PLATE): inactive; negative
- mutagenic call (Test System: AMES SALMONELLA TYPHIMURIUM, Strain/Indicator: TA102, Metabolic Activation: NONE, Method: STANDARD PLATE): inactive; negative
- mutagenic call (Test System: AMES SALMONELLA TYPHIMURIUM, Strain/Indicator: TA102, Metabolic Activation: RAT, LIVER, S-9, AROCLOR 1254, Method: STANDARD PLATE): inactive; negative

Structure (SMILES): O=C(CCl)C(Cl)Cl
- mutagenic call (Test System: AMES SALMONELLA TYPHIMURIUM, Strain/Indicator: TA100, Metabolic Activation: NONE, Method: FLUCTUATION TEST): active; positive
- mutagenic call (Test System: AMES SALMONELLA TYPHIMURIUM, Strain/Indicator: TA100, Metabolic Activation: RAT, LIVER, S-9, AROCLOR 1254, Method: FLUCTUATION TEST): inactive; negative

Structure (SMILES): N/C(=N\O)c1ccccc1
- mutagenic call (Test System: AMES SALMONELLA TYPHIMURIUM, Strain/Indicator: TA98, Metabolic Activation: CO631 CELLS, Method: PREINCUBATION): inactive; negative
- mutagenic call [3]: inactive; negative
- mutagenic call (Test System: AMES SALMONELLA TYPHIMURIUM, Strain/Indicator: TA98, Metabolic Activation: RABBIT, LIVER, S-9, Method: PREINCUBATION): active; positive
- mutagenic call (Test System: AMES SALMONELLA TYPHIMURIUM, Strain/Indicator: TA98, Metabolic Activation: RAT HEPATOCYTES, Method: PREINCUBATION): inactive; negative
- mutagenic call (Test System: AMES SALMONELLA TYPHIMURIUM, Strain/Indicator: TA98, Metabolic Activation: RAT, LIVER, S-9, AROCLOR 1254, ATP, Method: PREINCUBATION): inactive; negative
- mutagenic call [4]: inactive; negative
- mutagenic call (Test System: AMES SALMONELLA TYPHIMURIUM, Strain/Indicator: TA100, Metabolic Activation: RABBIT, LIVER, S-9, Method: PREINCUBATION): inactive; negative
- mutagenic call (Test System: AMES SALMONELLA TYPHIMURIUM, Strain/Indicator: TA100, Metabolic Activation: RAT HEPATOCYTES, Method: PREINCUBATION): inactive; negative
- mutagenic call (Test System: AMES SALMONELLA TYPHIMURIUM, Strain/Indicator: TA100, Metabolic Activation: RAT, LIVER, S-9, AROCLOR 1254, ATP, Method: PREINCUBATION): inactive; negative
- mutagenic call [2]: inactive; negative

Structure (SMILES): COc1cc2c(c3oc(=O)c4c(c13)CCC4=O)[C@H]1[C@@H](O2)O[C@@H]2O[C@@H]21
- mutagenic call [3]: active; positive
- mutagenic call [4]: active; positive
- mutagenic call (Test System: AMES SALMONELLA TYPHIMURIUM, Strain/Indicator: TA100, Metabolic Activation: NONE, Method: MICROSUSPENSION): active; positive
- mutagenic call [1]: active; positive
- mutagenic call (Test System: AMES SALMONELLA TYPHIMURIUM, Strain/Indicator: TA100, Metabolic Activation: RAT, LIVER, S-9, AROCLOR 1254, Method: MICROSUSPENSION): active; positive
- mutagenic call [2]: active; positive
